# Laboratory results taken from patent EP1400530A1, “Suppression of immune response via inhibition of cathepsin S” (MASSACHUSETTS INSTITUTE OF TECHNOLOGY, priority 1996, dated 1997).
# Tested on: Peripheral blood mononuclear cells (PBMC's)
# Assay type: cell-based, human
# Conditions: 3-5 days; 20 µM
structure (smiles),measurement,value
CCOC(=O)[C@H]1O[C@@H]1C(=O)N[C@@H](CC(C)C)C(=O)NCCC(C)C (relative stereo) [E64D],attenuation of 3H-thymidine uptake response to tetanus toxoid,approximately 60%
